According to patent US4556658A, “7-Amino-1-cyclopropyl-6,8-difluoro-1,4-di hydro-4-oxo-quinoline-3-carboxylic acids and antibacterial agents containing these compounds” (Bayer Aktiengesellschaft, priority 1983, dated 1985):
In brackets after ≈: the same amount, converted by molar mass. Where two headings read alike, the source gives them in different places.

Assays:
Format in all cases: cell-based
[1] = system: Streptococc. faecal. 9790; assay: MIC, agar dilution test, Streptococc. faecal. 9790
Description: (§1) | Denley multipoint inoculator

Pseudomonas W. = assay: MIC, agar dilution test, Pseudomonas W.
Description: as §1

Proteus mir. 8223 = assay: MIC, agar dilution test, Proteus mir. 8223; details: Proteus mirabilis
Description: as §1

Proteus morg. 932 = assay: MIC, agar dilution test, Proteus morg. 932; details: Morganella morganii, Isosensitest medium
Description: as §1

[2] = Streptococc. faecal. 9790, agar dilution, Isosensitest medium, read-out: MIC
[3] = Pseudomonas W., agar dilution, Isosensitest medium, read-out: MIC
[4] = Proteus mir. 8223, agar dilution, Isosensitest medium, read-out: MIC

Row | Structure (SMILES) | MIC [1, 2] [µg/mL] | MIC (Pseudomonas W.; [3]) [µg/mL] | MIC (Proteus mir. 8223; [4]) [µg/mL] | MIC (Proteus morg. 932) [µg/mL] | MIC [1] [µg/mL] | MIC (Pseudomonas W.; Pseudomonas) [µg/mL] | MIC (Proteus mir. 8223; MIR.8223) [µg/mL]
1 | CC1CN(c2c(F)cc3c(=O)c(C(=O)O)cn(C4CC4)c3c2F)CCN1 (centres unmarked) [Example 3] | 500 (≈ 1380 µM) | 500 (≈ 1380 µM) | 4000 (≈ 11000 µM) | – | – | – | –
2 | CCN1CCN(c2c(F)cc3c(=O)c(C(=O)O)cn(C4CC4)c3c2F)CC1 [Example 13] | 1000 (≈ 2650 µM) | 500 (≈ 1320 µM) | 4000 (≈ 10600 µM) | – | – | – | –
3 | CC(=O)CCN1CCN(c2c(F)cc3c(=O)c(C(=O)O)cn(C4CC4)c3c2F)CC1 [Example 28, 1-cyclopropyl-6,8-difluoro-1,4-dihydro-4-oxo-7-[4-(3-oxobutyl)-piperazin-1-yl]-quinoline-3-carboxylic acid] | 500 (≈ 1190 µM) | 250 (≈ 596 µM) | 4000 (≈ 9540 µM) | – | – | – | –
4 | CC1CN(c2c(F)cc3c(=O)c(C(=O)O)cn(C4CC4)c3c2F)CC(C)O1 (centres unmarked) [Example 10] | 250 (≈ 661 µM) | 4000 (≈ 10600 µM) | 8000 (≈ 21100 µM) | 1000 (≈ 2640 µM) | – | – | –
5 | O=C(O)c1cn(C2CC2)c2c(F)c(N3CCN(CC4CC4)CC3)c(F)cc2c1=O [Example 15, 1-cyclopropyl-7-(4-cyclopropylmethylpiperazin-1-yl)-6,8-difluoro-1,4-dihydro-4-oxoquinoline-3-carboxylic acid] | 2000 (≈ 4960 µM) | 8000 (≈ 19800 µM) | 8000 (≈ 19800 µM) | 60 (≈ 149 µM) | – | – | –
6 | CCC1CN(c2c(F)cc3c(=O)c(C(=O)O)cn(C4CC4)c3c2F)CCN1 (centres unmarked) [Example 4] | 500 (≈ 1320 µM) | 1000 (≈ 2650 µM) | 8000 (≈ 21200 µM) | – | – | – | –
7 | CCN1CCN(c2c(F)cc3c(=O)c(C(=O)O)cn(C4CC4)c3c2F)CC1C (centres unmarked) [Example 14] | 1000 (≈ 2550 µM) | 4000 (≈ 10200 µM) | 16000 (≈ 40900 µM) | 30 (≈ 76.6 µM) | – | – | –
8 | CC1CN(c2c(F)cc3c(=O)c(C(=O)O)cn(C4CC4)c3c2F)CC(C)N1 (centres unmarked) [Example 5] | 500 (≈ 1320 µM) | 1000 (≈ 2650 µM) | 4000 (≈ 10600 µM) | – | – | – | –
9 | O=C(O)c1cn(C2CC2)c2c(F)c(N3CCCC3)c(F)cc2c1=O [Example 11] | 500 (≈ 1500 µM) | 4000 (≈ 12000 µM) | 8000 (≈ 23900 µM) | 500 (≈ 1500 µM) | – | – | –
10 | Cl.O=C(O)c1cn(C2CC2)c2c(F)c(N3CCNCC3)c(F)cc2c1=O [Example 1, 1-cyclopropyl-6,8-difluoro-7-(piperazin-1-yl)-1,4-dihydro-4-oxoquinoline-3-carboxylic acid hydrochloride] | – | – | – | – | 250 | 60 | 2000
11 | CN1CCN(c2c(F)cc3c(=O)c(C(=O)O)cn(C4CC4)c3c2F)CC1.Cl [Example 2, 1-cyclopropyl-6,8-difluoro-7-(4-methylpiperazin-1-yl)-1,4-dihydro-4-oxoquinoline-3-carboxylic acid hydrochloride] | 500 | – | 2000 | – | – | – | –
12 | O=C(O)c1cn(C2CC2)c2c(F)c(N3CCOCC3)c(F)cc2c1=O [Example 7, 1-cyclopropyl-6,8-difluoro-7-(morpholin-4-yl)-1,4-dihydro-4-oxoquinoline-3-carboxylic acid] | 500 (≈ 1430 µM) | 1000 (≈ 2850 µM) | 8000 (≈ 22800 µM) | 60 (≈ 171 µM) | – | – | –
13 | O=C(O)c1cn(C2CC2)c2c(F)c(N3CCN(CCO)CC3)c(F)cc2c1=O [Example 6] | 500 (≈ 1270 µM) | 1000 (≈ 2540 µM) | 4000 (≈ 10200 µM) | – | – | – | –
14 | O=C(O)c1cn(C2CC2)c2c(F)c(N3CCC(O)CC3)c(F)cc2c1=O [Example 8] | – | 1000 (≈ 2740 µM) | 4000 (≈ 11000 µM) | 30 (≈ 82.3 µM) | – | – | –
15 | CC(C)N1CCN(c2c(F)cc3c(=O)c(C(=O)O)cn(C4CC4)c3c2F)CC1.I [Example 12, 1-cyclopropyl-6,8-difluoro-7-(4-isopropylpiperazin-1-yl)-1,4-dihydro-4-oxoquinoline-3-carboxylic acid hydriodide] | 2000 | 8000 | 16000 | 60 | – | – | –
